Measured values published in the supplement of paper PMC3974653.
Where a name gives a salt, the structure may show the parent alone.

Each compound was assayed on MTT (mouse pheochromocytoma) (assay: IC50 of cell viability (ATP content)). Conditions: (24 or 48 h).
How it was run: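 MTT mouse pheochromocytoma cells in white 1536-well plates were treated for 24 or 48 hrs with library compounds at 8 final concentrations from 0.5 nM to 46 µM. ATP content was measured with CellTiter-Glo luminescence, using positive-control wells as 100% and DMSO wells as 0%. IC50 came from a four-parameter logistic fit.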

Row | SMILES | IC50 of cell viability
1 | CN(C)CCCN1c2ccccc2Sc2ccccc21 [Promazine hydrochloride] | > 46 µM
2 | N=C(N)c1ccc(OCCCOc2ccc(C(=N)N)cc2)cc1 [Propamidine] | > 46 µM
3 | CCCOC(=O)Cc1ccc(OCC(=O)N(CC)CC)c(OC)c1 [Propanidid] | > 46 µM
4 | CCCOc1ccc(C(=O)OCCN(CC)CC)cc1N [Proparacaine hydrochloride] | > 46 µM
5 | CCC(Oc1ccccc1)C(=O)NC1C(=O)N2C1SC(C)(C)C2C(=O)[O-] (stereo not given) [Propicillin] | > 46 µM
6 | CCC(=O)[O-] [Propionic acid] | > 46 µM
7 | CCCOc1cc(N)ccc1C(=O)OCCN(CC)CC [Propoxycaine hydrochloride] | > 46 µM
8 | CCCOC(=O)c1cc(O)c(O)c(O)c1 [Propyl gallate] | > 46 µM
9 | CCCOC(=O)c1ccc(O)cc1 [Propyl-4-hydroxybenzoate] | > 46 µM
10 | CNC(C)CC1CCCCC1 (stereo not given) [Propylhexadrine] | > 46 µM
11 | CCCOC(=O)c1ccc(O)cc1 [Propylparaben] | > 46 µM
12 | C[C@@H]1O[C@@H](O[C@H]\2CC[C@]\3(C)[C@@H]4CC[C@]5(C)[C@@H](CC[C@@]5(O)[C@H]4CCC3=C2)C/6=C/OC(=O)/C=C6)[C@H](O)[C@H](O)[C@@H]1O [Proscillaridin A] | > 46 µM
13 | C[N+]1(C)[C@@H]2C[C@H](OC(=O)[C@@H](CO)c3ccccc3)C[C@@H]1[C@H]1O[C@H]12 [Proscomide] | > 46 µM
14 | CNCCCC1C2=C(C=CC=C2)\C=C/C3=C1C=CC=C3 [Protriptyline hydrochloride] | > 46 µM
15 | CC[C@H](c1ccccc1)c1noc(CCN(CC)CC)n1 [Proxazole citrate] | > 46 µM
16 | C[C@H](O)Cn1cnc2c1c(=O)n(C)c(=O)n2C [Proxyphylline] | > 46 µM
17 | Cc1oc(=O)oc1CN1CCN(c2cc3c(cc2F)c(=O)c(C(=O)O)c2n3C(C)S2)CC1 (stereo not given) [Prulifloxacin] | > 46 µM
18 | CN(C)CCc1c[nH]c2cccc(O)c12 [Psilocin] | > 46 µM
19 | CN(C)CCc1c[nH]c2cccc(OP(=O)(O)O)c12 [Psilocybin] | > 46 µM
20 | CN1CCCN=C1/C=C\c1cccs1.O=C(O)[C@@H](O)[C@@H](O)C(=O)O [Pyrantel tartrate] | > 46 µM
21 | NC(=O)c1cnccn1 [Pyrazinamide] | > 46 µM
22 | Cc1ncc(CO)c(CN)c1O [Pyridoxamine dichlorohydrate] | > 46 µM
23 | Cc1ncc(CO)c(CO)c1O [Pyridoxine] | > 46 µM
24 | CCOC(=O)C(CCc1ccccc1)NC(C)C(=O)N1Cc2ccccc2CC1C(=O)O.Cl (stereo not given) [QUINAPRIL HYDROCHLORIDE] | > 46 µM
25 | C=CC1CN2CCC1CC2[C@@H](O)c1ccnc2ccc(OC)cc12 (stereo not given in full) [QUINIDINE GLUCONATE] | > 46 µM
26 | C=C[C@H]1CN2CCC1C[C@H]2[C@H](O)c1ccnc2ccc(OC)cc12 (stereo not given in full) [QUININE ASCORBATE] | > 46 µM
27 | C=CC1C[N@]2CCC1CC2C(OC(=O)OCC)c1ccnc2ccc(OC)cc12 (stereo not given in full) [QUININE ETHYL CARBONATE] | > 46 µM
28 | c1ccc2nc(N3CCNCC3)ccc2c1 [QUIPAZINE] | > 46 µM

Row | SMILES | IC50 of cell viability
29 | C[C@@H](C(=O)O)c1ccc(C2CCCCC2)c2ccccc12 [Quadrisol] | > 46 µM
30 | CCc1ncnc2cc(OC)c(OC)cc12 [Quazodine] | > 46 µM
31 | O.O.OC1=CC2=C(C(=C1)O)C(=O)\C(=C(/O2)C3=CC(=C(O)C=C3)O)O [Quercetine dihydrate] | > 46 µM
32 | OC(c1ccccc1)(c1ccccc1)C1CN2CCC1CC2 (stereo not given) [Quifenadine] | > 46 µM
33 | CCN(CC)CCC[C@H](C)Nc1c2ccc(Cl)cc2nc2ccc(OC)cc12.Cl.Cl.O.O [Quinacrine dihydrochloride dihydrate] | > 46 µM
34 | [O-][n+]1cc[n+]([O-])c2ccccc21 [Quindoxin] | > 46 µM
35 | CC[C@H]1NC(=O)c2cc([S+](N)(=O)[O-])c(Cl)cc2N1 [Quinethazone] | > 46 µM
36 | C=C[C@H]1CN2CCC1C[C@H]2[C@H](O)c1ccnc2ccc(OC)cc12.C=C[C@H]1CN2CCC1C[C@H]2[C@H](O)c1ccnc2ccc(OC)cc12.O.O.O=[S+]([O-])(O)O (stereo not given in full) [Quinine hemisulfate salt monohydrate] | > 46 µM
37 | CCCN1CCC[C@H](c2cccc(O)c2)C1.Cl [R(+)-3PPP hydrochloride] | > 46 µM
38 | CCN(CC)C(=O)N[C@@H]1C[C@@H]2c3cccc4[nH]cc(c34)C[C@H]2N(C)C1 [R(+)-TERGURIDE] | > 46 µM
39 | COc1ccc(CCNC[C@@H](O)c2ccc(O)cc2)cc1OC [R(-)-Denopamine] | > 46 µM
40 | CC(C)NC[C@@H](O)COc1ccc(CC(N)=O)cc1 [R-(+)-ATENOLOL] | > 46 µM
41 | CC(C)NC[C@@H](O)COc1cccc2ccccc12 [R-(+)-PROPRANOLOL] | > 46 µM
42 | C=CCC1(C(C)CCC)C(=O)NC(=O)NC1=O (stereo not drawn) [R-(+)-Secobarbital] | > 46 µM
43 | COCCCOc1ccnc(C[S+]([O-])c2nc3ccccc3[n-]2)c1C (stereo not given) [RABEPRAZOLE SODIUM] | > 46 µM
44 | CC(CCc1ccc(O)cc1)NCC(O)c1ccc(O)cc1 (stereo not given) [RACTOPAMINE HYDROCHLORIDE] | > 46 µM
45 | C=C1NC(=O)c2cc(CN(C)c3ccc(C(=O)N[C@@H](CCC(=O)O)C(=O)O)s3)ccc2N1 [RALTITREXED] | > 46 µM
46 | O=C(O)CCn1c2c(c3ccccc31)C[C@H](N[S+](=O)([O-])c1ccc(F)cc1)CC2 [RAMATROBAN] | > 46 µM
47 | CCC(=O)NCCC1CCc2ccc3c(c21)CCO3 (stereo not given) [RAMELTEON] | > 46 µM
48 | Cl.CC(C)NC/1=C(C)/N(C)N(C1=O)C2=CC=CC=C2 [RAMIFENAZONE] | > 46 µM
49 | Cn1cc(C(=O)[C@@H]2CCc3[nH]cnc3C2)c2ccccc21 [RAMOSETRON HYDROCHLORIDE] | > 46 µM
50 | CN/C(=C\[N+](=O)[O-])NCCSCc1ccc(CN(C)C)o1 [RANITIDINE] | > 46 µM
51 | COc1ccccc1OCC(O)CN1CCN(CC(=O)Nc2c(C)cccc2C)CC1 (stereo not given) [RANOLAZINE] | > 46 µM
52 | C=CC[N+]1([C@H]2C[C@H]3[C@@H]4CC[C@H]5C[C@H](OC(C)=O)[C@@H](N6CCCCC6)C[C@]5(C)[C@H]4CC[C@]3(C)[C@H]2OC(=O)CC)CCCCC1 [RAPACURONIUM BROMIDE] | > 46 µM
53 | C#CCN[C@@H]1CCc2ccccc21 [RASAGILINE MESYLATE] | > 46 µM
54 | COC(=O)[C@H]1[C@H]2C[C@H]3c4[nH]c5ccccc5c4CCN3C[C@H]2CC[C@@H]1O [RAUWOLSCINE] | > 46 µM
55 | OC(=O)C(CC/1=C/C(=O)NC2=CC=CC=C12)NC(=O)C3=CC=C(Cl)C=C3 (stereo not given) [REBAMIPIDE] | > 46 µM
